The values below come from article PMC11599599, “Synthesis, characterization, molecular docking, pharmacokinetics, and molecular dynamics of new bis-thiazoles based on bis-thiosemicarbazone as anti-coxsackievirus” (Scientific Reports, 2024).

One data set has as its system Vero cells. Nature of the data set: Cytotoxicity assay on Vero cells (microscopic morphology). The data set is classed as cell-based. On the set-up: key to Cytotoxicity on Vero cells (cell sheet affected): -: Safe concentration; + 1, +2, + 3, +4: about 25, 50, 75, 100% of cell sheet was affected respectively; + 1, +2, + 3, +4: about 25, 50, 75, 100% of cell sheet was affected respectively; + 1, +2, + 3, +4: about 25, 50, 75, 100% of cell sheet was affected respectively; + 1, +2, + 3, +4: about 25, 50, 75, 100% of cell sheet was affected respectively; M: masked (color of compounds made cells unseen). The note with it: for Cytotoxicity on Vero cells (cell sheet affected): 24 h, morphological changes; for Safety effect on Vero cells (in words): Table 1, 24 h. The method, then:
(§1) Compounds: 10 mg were dissolved in 1 mL (10% DMSO and 90% deionized water), sterilized by 1% antibiotic–antimycotic mixture and stored in −20.
(§2) Cells: Vero cell line was used. The cells were propagated in DMEM medium (Lonza, USA) supplemented with 10% fetal bovine serum (Gibco, USA), 1% antibiotic–antimycotic mixture (Lonza, USA).
Cytotoxic effect of compounds was measured by inoculation different doses of compounds on tested cells then examining them microscopically after 24 h to determine any morphological changes that appeared on cells as a result of being subjected to the compounds[46]. Vero cells were seeded onto 96-well plates, which were then incubated for the whole night. After a 24-hour incubation period at 37 °C in a humidified incubator with 5% CO2, compounds were injected at concentrations of 10, 20, 30, 40, 50, 60, 70, 80, 90, and 100 µg /100 µl. Any morphological changes were monitored under a microscope.

In another data set the test system is Cox B virus. Briefly: Plaque reduction assay against Cox B virus. In kind it is cell-based. Conditions: for inhibition at 20 µg/mL / inhibition at 40 µg/mL: Vero. As for the experimental part: as §1, §2
Virus: Cox B virus was propagated and titrated to give final count of 0.9 × 10^5 viral particle/mL.
This test was done according to Tebas et al.[47], In a 12-well plate Vero cells (10^5 cells/mL) were cultivated for 1 day at 37 °C. The Cox B virus was mixed with the safe concentration of the compound and incubated for 1 h at 37 °C before being added to the cells. Following the removal of the growth media, the cells were injected with virus-extract combinations ([…]) and then rinsed with PBS (Phosphate Buffer Saline). Following a one-hour contact period for virus adsorption, the cell monolayer was supplemented with one milliliter of Dulbecco’s Modified Eagles Media (DMEM) containing 2% agarose. The plates were then allowed to solidify and incubated at 37 °C until the development of viral plaques. Formalin (10%) was added for 2 h then plates were stained with crystal violet. Control wells were included where untreated virus was incubated with Vero cells and finally plaques were counted and percentage reduction in plaques formation in comparison to control wells was recorded as following:
% inhibition = (viral count(untreated) - viral count(treated))/viral count(untreated)X100.
Background: In a plaque reduction assay, fewer plaques than in the control indicate reduced infectivity or spread.

One may read the inhibition as the share of the control response that was lost under treatment. A word on the melting point: it is the temperature of the solid-liquid transition. Take `COc1ccc(OC)c(C=C2/C(=N/Nc3nc(-c4ccccc4)cs3)c3ccccc3/C2=N\Nc2nc(-c3ccccc3)cs2)c1` [compound 13, 2,2’-(((1E,3E)−2-(2,5-dimethoxybenzylidene)−1H-indene-1,3(2H)-diylidene)bis(hydrazin-1-yl-2-ylidene))bis(4-phenylthiazole)]: the melting point lay in the range of 193 to 195 °C. Further, the “Cytotoxicity on Vero cells (cell sheet affected)” value (“Cytotoxicity on Vero cells” below) in the data set on Vero cells (10 µg/100µl) is given as “-”. Also, the “Cytotoxicity on Vero cells” value in the data set on Vero cells (20 µg/100µl) was “-”. Further, in the data set on Vero cells (30 µg/100µl), the “Cytotoxicity on Vero cells” value is reported as “-”. Also, the “Cytotoxicity on Vero cells” value in the data set with Vero cells (40 µg/100µl) is given as “-”. Moreover, in the data set with Vero cells (50 µg/100µl), the “Cytotoxicity on Vero cells” value is “-”. Moreover, the “Cytotoxicity on Vero cells” value in the data set on Vero cells (60 µg/100µl) was “-”. In addition, in the data set with Vero cells (70 µg/100µl), the “Cytotoxicity on Vero cells” value is given as “-”. The “Cytotoxicity on Vero cells” value in the data set on Vero cells (80 µg/100µl) is “-”. In addition, the “Cytotoxicity on Vero cells” value in the data set with Vero cells (90 µg/100µl) was “-”. In addition, the “Cytotoxicity on Vero cells” value in the data set on Vero cells (100 µg/100µl) is reported as “-”. In the data set on Vero cells, the “Safety effect on Vero cells (in words)” value is reported as “higher safety”. The “Viral count (treated)” value in the data set with Cox B virus (20 ug/mL) is on record as 1.6 × 10^7. In the data set on Cox B virus (40 ug/mL), the “Viral count (treated)” value is given as 1.6 × 10^7. For the same compound, in the data set with Cox B virus, the inhibition at 20 µg/mL is 0% and the inhibition at 40 µg/mL is 0%.
As to `COc1ccc(OC)c(C=C2/C(=N/Nc3nc(C)c(C(C)=O)s3)c3ccccc3/C2=N\Nc2nc(C)c(C(C)=O)s2)c1` [11a, 1,1’-((((1E,3E)−2-(2,5-dimethoxybenzylidene)−1H-indene-1,3(2H)-diylidene)bis(hydrazin-1-yl-2-ylidene))bis(4-methylthiazole-2,5-diyl))bis(ethan-1-one)], the “Cytotoxicity on Vero cells” value in the data set on Vero cells (10 µg/100µl) is given as “-”; in the data set on Vero cells (20 µg/100µl), “-”; in the data set on Vero cells (40 µg/100µl) it was “M”; with Vero cells (50 µg/100µl) it was “M”; in the data set with Vero cells (60 µg/100µl), “M”; with Vero cells (70 µg/100µl), “M”. Also, the “Cytotoxicity on Vero cells” value with Vero cells (80 µg/100µl), in the data set on Vero cells (90 µg/100µl) and with Vero cells (100 µg/100µl) was “M” each time. In addition, the “Safety effect on Vero cells (in words)” value with Vero cells is “dense and coloured that made masking to the cell sheet”. The “Viral count (treated)” value is reported as 1.44 × 10^7 in the data set with Cox B virus (20 ug/mL) and 0.68 × 10^7 in the data set with Cox B virus (40 ug/mL). The inhibition at 20 µg/mL in the data set on Cox B virus amounted to 10%. Moreover, in the data set on Cox B virus, the inhibition at 40 µg/mL amounted to 57%.
On to `COc1ccc(OC)c(C=C2C(=O)c3ccccc3C2=O)c1` [compound 1, 2-(2,5-dimethoxy-benzylidene)indan-1,3-dione], for which the “Cytotoxicity on Vero cells” value in the data set with Vero cells (10 µg/100µl), in the data set with Vero cells (20 µg/100µl), in the data set with Vero cells (30 µg/100µl), in the data set with Vero cells (40 µg/100µl), with Vero cells (50 µg/100µl) and in the data set with Vero cells (60 µg/100µl) was “-” in each case. The “Cytotoxicity on Vero cells” value in the data set with Vero cells (70 µg/100µl), in the data set with Vero cells (80 µg/100µl), with Vero cells (90 µg/100µl) and in the data set on Vero cells (100 µg/100µl) was “-” each time. In addition, the “Safety effect on Vero cells (in words)” value in the data set with Vero cells is on record as “higher safety”. The “Viral count (treated)” value with Cox B virus (20 ug/mL) is given as 1.42 × 10^7; in the data set on Cox B virus (40 ug/mL), 1.6 × 10^7. The inhibition at 20 µg/mL with Cox B virus worked out at 11%. In the data set on Cox B virus, the inhibition at 40 µg/mL turned out to be 0%.
`COc1ccc(OC)c(C=C2/C(=N/Nc3nc(C)cs3)c3ccccc3/C2=N\Nc2nc(C)cs2)c1` [11c, 2,2’-(((1E,3E)−2-(2,5-dimethoxybenzylidene)−1H-indene-1,3(2H)-diylidene)bis(hydrazin-1-yl-2-ylidene))bis(4-methylthiazole)]: the “Cytotoxicity on Vero cells” value in the data set with Vero cells (10 µg/100µl), with Vero cells (20 µg/100µl), with Vero cells (30 µg/100µl), with Vero cells (40 µg/100µl), in the data set on Vero cells (50 µg/100µl) and in the data set on Vero cells (60 µg/100µl) was “-” throughout. Further, the “Cytotoxicity on Vero cells” value in the data set with Vero cells (70 µg/100µl) was “-”; in the data set with Vero cells (80 µg/100µl), “-”; in the data set on Vero cells (90 µg/100µl), “M”; with Vero cells (100 µg/100µl) it was “M”. Further, in the data set with Vero cells, the “Safety effect on Vero cells (in words)” value was “dense and coloured that made masking to the cell sheet”. Besides, the “Viral count (treated)” value in the data set on Cox B virus (20 ug/mL) is listed as 0.84 × 10^7; in the data set on Cox B virus (40 ug/mL), 0.57 × 10^7. In addition, in the data set on Cox B virus, the inhibition at 20 µg/mL came out at 47%. For the same compound, the inhibition at 40 µg/mL in the data set with Cox B virus stood at 64%.
With `COc1ccc(OC)c(C=C2/C(=N/NC3=NC(=O)C(C)S3)c3ccccc3/C2=N\NC2=NC(=O)C(C)S2)c1` (centres unmarked) [9b, 2,2’-(((1E,3E)−2-(2,5-dimethoxybenzylidene)−1H-indene-1,3(2H)-diylidene)bis(hydrazin-1-yl-2-ylidene))bis(5-methylthiazol-4(5H)-one)], the melting point lay in the range of 198 to 200 °C. Moreover, the “Cytotoxicity on Vero cells” value in the data set with Vero cells (10 µg/100µl) is “-”. In addition, the “Cytotoxicity on Vero cells” value in the data set with Vero cells (20 µg/100µl) is given as “-”. Moreover, the “Cytotoxicity on Vero cells” value in the data set with Vero cells (30 µg/100µl) is recorded as “-”. In addition, the “Cytotoxicity on Vero cells” value in the data set with Vero cells (40 µg/100µl) is listed as “-”. For the same compound, the “Cytotoxicity on Vero cells” value in the data set on Vero cells (50 µg/100µl) is recorded as “-”. In the data set with Vero cells (60 µg/100µl), the “Cytotoxicity on Vero cells” value is “-”. The “Safety effect on Vero cells (in words)” value with Vero cells is given as “highly toxic at low concentration”.
Regarding `COc1ccc(OC)c(C=C2/C(=N/Nc3nc(C)c(/N=N/c4ccc(Cl)cc4)s3)c3ccccc3/C2=N\Nc2nc(C)c(/N=N/c3ccc(Cl)cc3)s2)c1` [7c, 2,2’-(((1E,3E)−2-(2,5-dimethoxybenzylidene)−1H-indene-1,3(2H)-diylidene)bis(hydrazin-1-yl-2-ylidene))bis(5-((E)-(4-chlorophenyl)diazenyl)−4-methylthiazole)], the “Cytotoxicity on Vero cells” value with Vero cells (10 µg/100µl), with Vero cells (20 µg/100µl), in the data set with Vero cells (30 µg/100µl), in the data set with Vero cells (40 µg/100µl), with Vero cells (50 µg/100µl) and with Vero cells (60 µg/100µl) was “-” each time. The “Cytotoxicity on Vero cells” value is “-” in the data set on Vero cells (70 µg/100µl), “-” in the data set on Vero cells (80 µg/100µl), “M” in the data set on Vero cells (90 µg/100µl) and “M” in the data set with Vero cells (100 µg/100µl). For the same compound, the “Safety effect on Vero cells (in words)” value in the data set with Vero cells was “dense and coloured that made masking to the cell sheet”. The “Viral count (treated)” value with Cox B virus (20 ug/mL) was 1.07 × 10^7; in the data set on Cox B virus (40 ug/mL), 1.6 × 10^7. Besides, the inhibition at 20 µg/mL in the data set on Cox B virus was 33%. In addition, in the data set on Cox B virus, the inhibition at 40 µg/mL was 0%.
Regarding `CCOC(=O)c1sc(N/N=C2/C(=Cc3cc(OC)ccc3OC)/C(=N/Nc3nc(C)c(C(=O)OCC)s3)c3ccccc32)nc1C` [11b, Diethyl 2,2’-(((1E,3E)−2-(2,5-dimethoxybenzylidene)−1H-indene-1,3(2H)-diylidene)bis-(hydrazin-1-yl-2-ylidene))bis(4-methylthiazole-5-carboxylate)], the “Cytotoxicity on Vero cells” value is on record as “-” with Vero cells (10 µg/100µl); “-” in the data set with Vero cells (20 µg/100µl); “-” with Vero cells (30 µg/100µl); “-” in the data set on Vero cells (40 µg/100µl); “-” in the data set with Vero cells (50 µg/100µl); “M” in the data set on Vero cells (60 µg/100µl). In addition, the “Cytotoxicity on Vero cells” value with Vero cells (70 µg/100µl), in the data set with Vero cells (80 µg/100µl), with Vero cells (90 µg/100µl) and in the data set with Vero cells (100 µg/100µl) was “M” in each case. Further, the “Safety effect on Vero cells (in words)” value in the data set on Vero cells was “dense and coloured that made masking to the cell sheet”. Besides, the results for the “Viral count (treated)” value in the data set with Cox B virus (20 ug/mL) and with Cox B virus (40 ug/mL) were 0.8 × 10^7 and 0.96 × 10^7, respectively. Besides, in the data set on Cox B virus, the inhibition at 20 µg/mL turned out to be 50%. In the data set on Cox B virus, the inhibition at 40 µg/mL came out at 40%.
